Where “and” joins values, the source holds several entries; their conditions need not be identical. Identical values can stand only once. Inconclusive results and toxic doses are left out. How the source made its calls: active means survival T/C of 150% or more; inactive means T/C below 125% in these data.
System: CD2F1 mice, L1210 leukemia ip, survival T/C
Assay: NCI In Vivo Anticancer Drug Screen. Data for tumor model L1210 Leukemia (intraperitoneal) in CD2F1 (CDF1) mice
Conditions: endpoint: mean survival time, higher = longer survival
Method in brief: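 Each value reflects a quotient of treated over vehicle control outcomes in mice with a transplanted tumor.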

[1] = dose: 100.0 mg/kg/injection, schedule: Q04DX003 (ip), vehicle: saline with Tween-80
[2] = dose: 200.0 mg/kg/injection, schedule: Q04DX003 (ip), vehicle: saline with Tween-80
[3] = dose: 400.0 mg/kg/injection, schedule: Q04DX003 (ip), vehicle: saline with Tween-80
[4] = dose: 6.25 mg/kg/injection, schedule: Q01DX009 (ip), vehicle: Klucel (hydroxypropylcellulose) (HPC)
[5] = dose: 12.5 mg/kg/injection, schedule: Q01DX009 (ip), vehicle: Klucel (hydroxypropylcellulose) (HPC)
[6] = dose: 25.0 mg/kg/injection, schedule: Q01DX009 (ip), vehicle: Klucel (hydroxypropylcellulose) (HPC)
[7] = dose: 100.0 mg/kg/injection, schedule: Q01DX001 (ip), vehicle: saline with Tween-80
[8] = dose: 200.0 mg/kg/injection, schedule: Q01DX001 (ip), vehicle: saline with Tween-80
[9] = dose: 400.0 mg/kg/injection, schedule: Q01DX001 (ip), vehicle: saline with Tween-80
[10] = dose: 100.0 mg/kg/injection, schedule: Q01DX009 (ip), vehicle: saline with Tween-80
[11] = dose: 200.0 mg/kg/injection, schedule: Q01DX009 (ip), vehicle: saline with Tween-80
[12] = dose: 50.0 mg/kg/injection, schedule: Q01DX009 (ip), vehicle: Klucel (hydroxypropylcellulose) (HPC)
[13] = dose: 100.0 mg/kg/injection, schedule: Q01DX009 (ip), vehicle: Klucel (hydroxypropylcellulose) (HPC)
[14] = dose: 25.0 mg/kg/injection, schedule: Q01DX009 (ip), vehicle: water
[15] = dose: 100.0 mg/kg/injection, schedule: Q04DX002 (ip), vehicle: saline with Tween-80
[16] = dose: 200.0 mg/kg/injection, schedule: Q04DX002 (ip), vehicle: saline with Tween-80
[17] = dose: 400.0 mg/kg/injection, schedule: Q04DX002 (ip), vehicle: saline with Tween-80

Measured: T/C

CC1=NN(c2cccc(S(=O)(=O)O)c2)C(=O)C1
inactive: dose: 100.0 mg/kg/injection, schedule: Q01DX009 (ip), vehicle: saline sonified 88 % of control

N/N=C(\C(=N\N)c1ccccc1)c1ccccc1
inactive: [1] 95 % of control | [2] 93 % of control | [3] 89 % of control

O=C(O)c1ccc([As](=O)(O)O)cc1
inactive: [4] 102 % of control | [5] 98 % of control | [6] 87 % of control and 92 % of control

O=C(O)C1CC1c1ccccc1 (stereo not given)
inactive: [1] 95 % of control | [2] 103 % of control | [3] 100 % of control

O=C(O)C(=Cc1ccnc2ccccc12)C(=O)O
inactive: dose: 100.0 mg/kg/injection, schedule: Q01DX009 (ip), vehicle: saline 100 % of control | [1] 111 % of control | dose: 200.0 mg/kg/injection, schedule: Q01DX009 (ip), vehicle: saline 94 % of control | [2] 100 % of control | dose: 400.0 mg/kg/injection, schedule: Q01DX009 (ip), vehicle: saline 111 % of control | [3] 98 % of control

CCOCCC(=O)NCc1ccccc1
inactive: [1] 100 % of control | [2] 98 % of control | [3] 102 % of control

CC(C)C1C=C2CCC3C(C)(C(=O)O)CCCC3(C)C2CC1 (stereo not given)
inactive: [7] 96 % of control | [8] 94 % of control | [9] 92 % of control

O=C(O)CC(O)C(=O)O.[Fe] (stereo not given)
inactive: dose: 100.0 mg/kg/injection, schedule: Q01DX001 (ip), vehicle: saline 93 % of control

CN(Cc1ccccc1)C(c1ccccc1)C(O)C(O)(c1ccccc1)c1ccccc1 (stereo not given)
inactive: dose: 100.0 mg/kg/injection, schedule: Q04DX003 (ip), vehicle: acetone 97 % of control | dose: 200.0 mg/kg/injection, schedule: Q04DX003 (ip), vehicle: acetone 97 % of control | dose: 400.0 mg/kg/injection, schedule: Q04DX003 (ip), vehicle: acetone 90 % of control

OC(c1ccccc1)(c1ccccc1)c1nc2ccccc2o1
inactive: [10] 107 % of control | [1] 96 % of control | [11] 100 % of control | [2] 91 % of control | [3] 95 % of control

CCCCS(CCCC)=NS(=O)(=O)c1ccc(C)cc1
inactive: [12] 90 % of control | [13] 94 % of control | dose: 200.0 mg/kg/injection, schedule: Q01DX009 (ip), vehicle: Klucel (hydroxypropylcellulose) (HPC) 90 % of control

CCCCCCCCCCCCCCCC(=O)N(CCCN(C)C)CCCN(CCCN(C)C)C(=O)CCCCCCCCCCCCCCC
inactive: dose: 1.56 mg/kg/injection, schedule: Q01DX009 (ip), vehicle: water 101 % of control | dose: 3.13 mg/kg/injection, schedule: Q01DX009 (ip), vehicle: water 98 % of control | dose: 6.25 mg/kg/injection, schedule: Q01DX009 (ip), vehicle: water 95 % of control | dose: 12.5 mg/kg/injection, schedule: Q01DX009 (ip), vehicle: water 94 % of control and 95 % of control | [14] 95 % of control

N#CC(C#N)=NNc1cccc(Cl)c1Cl
inactive: dose: 5.0 mg/kg/injection, schedule: Q04DX003 (ip), vehicle: saline with Tween-80 106 % of control | dose: 10.0 mg/kg/injection, schedule: Q04DX003 (ip), vehicle: saline with Tween-80 104 % of control | dose: 20.0 mg/kg/injection, schedule: Q04DX003 (ip), vehicle: saline with Tween-80 101 % of control

OCC1OCOC(CO)C(O)C1O (stereo not given)
inactive: dose: 100.0 mg/kg/injection, schedule: Q04DX002 (ip), vehicle: saline 114 % of control | dose: 200.0 mg/kg/injection, schedule: Q04DX002 (ip), vehicle: saline 111 % of control | dose: 400.0 mg/kg/injection, schedule: Q04DX002 (ip), vehicle: saline 100 % of control

Nc1nc(N)nc(-c2ccccc2)n1
inactive: [1] 96 % of control | [2] 98 % of control | [3] 105 % of control

O=C(NC(=S)Nc1cc(Cl)ccc1Cl)c1cccc(Br)c1
inactive: dose: 50.0 mg/kg/injection, schedule: Q01DX009 (ip), vehicle: saline with Tween-80 100 % of control | [7] 100 % of control | [10] 101 % of control and 105 % of control and 106 % of control | [15] 89 % of control and 95 % of control | [1] 94 % of control | [8] 97 % of control | [11] 98 % of control and 101 % of control | [16] 90 % of control and 95 % of control | [2] 90 % of control | [9] 100 % of control | dose: 400.0 mg/kg/injection, schedule: Q01DX009 (ip), vehicle: saline with Tween-80 115 % of control (2×) and 105 % of control | [17] 92 % of control and 95 % of control | [3] 86 % of control

NC(=O)c1c(N)sc2c1CCCC2
inactive: dose: 6.25 mg/kg/injection, schedule: Q01DX009 (ip), vehicle: saline with Tween-80 96 % of control | dose: 6.25 mg/kg/injection, schedule: Q04DX003 (ip), vehicle: saline with Tween-80 107 % of control | dose: 12.5 mg/kg/injection, schedule: Q01DX009 (ip), vehicle: saline with Tween-80 93 % of control | dose: 12.5 mg/kg/injection, schedule: Q04DX003 (ip), vehicle: saline with Tween-80 102 % of control | dose: 25.0 mg/kg/injection, schedule: Q01DX009 (ip), vehicle: saline with Tween-80 95 % of control | dose: 25.0 mg/kg/injection, schedule: Q04DX003 (ip), vehicle: saline with Tween-80 100 % of control

O=S1(=O)CCCCN1c1ccccn1
inactive: [15] 102 % of control | [16] 94 % of control | [17] 105 % of control

Nc1nc2ccc(CNc3ccc(C(=O)NC(CC(=O)O)C(=O)O)cc3)cc2c(=O)[nH]1 (stereo not given)
inactive: dose: 66.0 mg/kg/injection, schedule: Q04DX003 (ip), vehicle: saline with Tween-80 105 % of control | [1] 109 % of control | dose: 150.0 mg/kg/injection, schedule: Q04DX003 (ip), vehicle: saline with Tween-80 105 % of control

CCCCCCCCCCCCC(=O)O.[Pb]
inactive: dose: 75.0 mg/kg/injection, schedule: Q01DX001 (ip), vehicle: other 107 % of control | dose: 150.0 mg/kg/injection, schedule: Q01DX001 (ip), vehicle: other 104 % of control | dose: 300.0 mg/kg/injection, schedule: Q01DX001 (ip), vehicle: other 97 % of control

COc1cc(C)ccc1C1=CCCCCC1
inactive: dose: 100.0 mg/kg/injection, schedule: Q04DX003 (ip), vehicle: saline 93 % of control | dose: 200.0 mg/kg/injection, schedule: Q04DX003 (ip), vehicle: saline 93 % of control | dose: 400.0 mg/kg/injection, schedule: Q04DX003 (ip), vehicle: saline 103 % of control

CO[C@H]1C[C@H](O[C@H]2CC[C@]3(C=O)[C@H]4CC[C@]5(C)[C@@H](C6=CC(=O)OC6)CC[C@]5(O)[C@@H]4CC[C@]3(O)C2)O[C@H](C)[C@H]1O[C@@H]1O[C@H](CO)[C@@H](O)[C@H](O)[C@H]1O
inactive: dose: 0.25 mg/kg/injection, schedule: Q01DX009 (ip), vehicle: saline 102 % of control | dose: 0.5 mg/kg/injection, schedule: Q01DX009 (ip), vehicle: saline 96 % of control | dose: 1.0 mg/kg/injection, schedule: Q01DX009 (ip), vehicle: saline 110 % of control

COc1cc(/C=N\N=C\c2ccc(O)c(OC)c2)ccc1O
inactive: [10] 98 % of control | [11] 96 % of control

Cc1ccc2c(ccc(CC(=S)[S-])[n+]2C)c1
inactive: [4] 97 % of control and 107 % of control | [5] 94 % of control and 109 % of control | [6] 93 % of control | [12] 91 % of control and 95 % of control | [13] 90 % of control and 96 % of control

O=C(Nc1ccccc1)Nc1ccc2c(c1)oc1ccccc12
inactive: dose: 50.0 mg/kg/injection, schedule: Q01DX001 (ip), vehicle: Klucel (hydroxypropylcellulose) (HPC) 108 % of control | dose: 100.0 mg/kg/injection, schedule: Q01DX001 (ip), vehicle: Klucel (hydroxypropylcellulose) (HPC) 97 % of control | [15] 95 % of control | dose: 200.0 mg/kg/injection, schedule: Q01DX001 (ip), vehicle: Klucel (hydroxypropylcellulose) (HPC) 94 % of control | [16] 91 % of control | [17] 98 % of control

CN(C)c1ccc(/C=C/c2nc(N)nc(N)c2[N+](=O)[O-])cc1
inactive: [14] 98 % of control | dose: 50.0 mg/kg/injection, schedule: Q01DX009 (ip), vehicle: water 97 % of control | dose: 100.0 mg/kg/injection, schedule: Q01DX009 (ip), vehicle: water 97 % of control | dose: 200.0 mg/kg/injection, schedule: Q01DX009 (ip), vehicle: water 92 % of control | dose: 400.0 mg/kg/injection, schedule: Q01DX009 (ip), vehicle: water 90 % of control

Reference: PubChem BioAssay AID256 (DTP/NCI, 2004)
